Patent US20260356830A1, “COMPOUNDS FOR MODULATING RET PROTEIN” (Bristol-Myers Squibb Company, priority 2022, published 2026)

Target: T1, CCDC6-RET (Homo sapiens, UniProt P07949+Q16204+Q96SW2)
T1 construct: CCDC6 (natural N-terminal fusion partner, UniProt Q16204); endogenous in cells; host or cells: TPC-1 (parental, papillary thyroid carcinoma)
Test: Cellular RET degradation, AlphaLISA, TPC-1 cell line
Type: cell-based
Conditions: for Dmax: TPC1, human, 24 h, read-out: Cell Density TPC-1/CCDC6-RET Ymax %; for DC50: read-out: Cell Density TPC-1/CCDC6-RET DC50, half-maximal degradation concentration, TPC-1 (CCDC6-RET), 24 hrs
In short: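 TPC-1 papillary thyroid carcinoma cells (endogenous CCDC6-RET) in DMEM with 2% FBS, compound-treated 24 h at 37 °C. RET in lysates quantified by AlphaLISA luminescence, normalized to media-only and DMSO wells; DC50 and maximal degradation from 4-parameter logistic fit.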

T1 sequence (Q16204+P07949 fused): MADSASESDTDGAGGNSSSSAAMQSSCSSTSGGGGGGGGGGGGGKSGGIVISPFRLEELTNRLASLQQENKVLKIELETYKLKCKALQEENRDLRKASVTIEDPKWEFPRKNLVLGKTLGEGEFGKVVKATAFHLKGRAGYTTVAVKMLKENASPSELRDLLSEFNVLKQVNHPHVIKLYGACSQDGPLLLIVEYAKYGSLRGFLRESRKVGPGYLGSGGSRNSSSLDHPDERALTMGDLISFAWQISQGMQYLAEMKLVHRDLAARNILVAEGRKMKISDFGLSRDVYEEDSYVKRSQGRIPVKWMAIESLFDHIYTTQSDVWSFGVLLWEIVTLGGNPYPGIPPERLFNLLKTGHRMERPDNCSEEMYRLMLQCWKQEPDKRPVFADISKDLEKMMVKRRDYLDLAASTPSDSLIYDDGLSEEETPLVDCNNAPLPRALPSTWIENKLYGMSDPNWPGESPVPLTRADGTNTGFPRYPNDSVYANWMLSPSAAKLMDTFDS
T1 sequence (Q96SW2 whole entry, the tested form may be a part): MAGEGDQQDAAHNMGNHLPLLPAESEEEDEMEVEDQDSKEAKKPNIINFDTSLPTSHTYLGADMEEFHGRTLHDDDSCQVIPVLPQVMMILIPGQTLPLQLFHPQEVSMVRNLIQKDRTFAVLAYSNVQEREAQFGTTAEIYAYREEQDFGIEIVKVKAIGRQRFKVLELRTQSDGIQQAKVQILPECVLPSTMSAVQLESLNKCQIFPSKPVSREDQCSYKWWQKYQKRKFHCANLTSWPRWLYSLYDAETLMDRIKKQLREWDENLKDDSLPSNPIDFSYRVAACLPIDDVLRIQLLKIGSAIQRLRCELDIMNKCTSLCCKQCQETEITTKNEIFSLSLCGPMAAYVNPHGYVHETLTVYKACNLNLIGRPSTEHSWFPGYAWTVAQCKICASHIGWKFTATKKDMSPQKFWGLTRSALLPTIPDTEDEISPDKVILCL
T1 sequence (Q16531 whole entry partner, the tested form may be a part): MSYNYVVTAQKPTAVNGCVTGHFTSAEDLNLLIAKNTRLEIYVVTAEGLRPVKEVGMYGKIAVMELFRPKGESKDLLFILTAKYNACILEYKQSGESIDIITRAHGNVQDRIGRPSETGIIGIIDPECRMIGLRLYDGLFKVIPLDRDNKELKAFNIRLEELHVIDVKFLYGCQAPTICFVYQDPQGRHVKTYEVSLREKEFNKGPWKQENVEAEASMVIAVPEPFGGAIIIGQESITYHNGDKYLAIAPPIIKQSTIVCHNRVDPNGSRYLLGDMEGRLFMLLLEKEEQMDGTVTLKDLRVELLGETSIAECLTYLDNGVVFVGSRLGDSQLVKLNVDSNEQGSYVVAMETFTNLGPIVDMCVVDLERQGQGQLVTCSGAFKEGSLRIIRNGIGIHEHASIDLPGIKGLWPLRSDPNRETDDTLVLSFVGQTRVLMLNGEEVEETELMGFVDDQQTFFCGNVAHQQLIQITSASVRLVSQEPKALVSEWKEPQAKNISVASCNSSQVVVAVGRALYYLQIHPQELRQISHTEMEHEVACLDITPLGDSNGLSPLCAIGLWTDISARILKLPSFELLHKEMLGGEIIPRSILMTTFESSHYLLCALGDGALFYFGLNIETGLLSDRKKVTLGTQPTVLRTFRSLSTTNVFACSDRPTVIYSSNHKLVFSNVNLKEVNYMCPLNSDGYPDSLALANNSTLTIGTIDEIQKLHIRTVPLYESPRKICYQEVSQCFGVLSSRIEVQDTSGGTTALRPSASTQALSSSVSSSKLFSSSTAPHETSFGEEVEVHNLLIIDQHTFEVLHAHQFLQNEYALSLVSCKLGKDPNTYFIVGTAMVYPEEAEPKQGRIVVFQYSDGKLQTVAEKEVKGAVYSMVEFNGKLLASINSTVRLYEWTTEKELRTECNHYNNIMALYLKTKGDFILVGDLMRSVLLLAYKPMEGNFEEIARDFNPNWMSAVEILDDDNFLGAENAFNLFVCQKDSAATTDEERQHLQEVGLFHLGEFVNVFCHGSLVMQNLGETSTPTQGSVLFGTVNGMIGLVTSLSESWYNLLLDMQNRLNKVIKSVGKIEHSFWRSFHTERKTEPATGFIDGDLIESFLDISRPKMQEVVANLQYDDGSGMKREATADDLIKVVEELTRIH

CCOc1cc(-c2ccc(N3CCC(C)(CN4CCN(C(=O)CCN5CCC(c6ccc7c(c6)C(=O)N(C6CCC(=O)NC6=O)C7)CC5)CC4)CC3)nc2)c2c(C#N)cnn2c1 (stereo not shown) [Example 147, 4-[6-(4-{[4-(3-{4-[2-(2,6-dioxopiperidin-3-yl)-3-oxo-2,3-dihydro-1H-isoindol-5-yl]piperidin-1-yl}propanoyl)piperazin-1-yl]methyl}-4-methylpiperidin-1-yl)pyridin-3-yl]-6-ethoxypyrazolo[1,5-a]pyridine-3-carbonitrile]
Dmax: 60 to 90%
DC50: 10 to 100 nM

CCOc1cc(-c2ccc(N3CCC(NC(=O)c4cc(F)ccc4F)(C(=O)NCCCCCCNc4ccc(N5CCC(=O)NC5=O)cc4)CC3)nc2)c2c(C#N)cnn2c1 [Example 148, 1-(5-{3-cyano-6-ethoxypyrazolo[1,5-a]pyridin-4-yl}pyridin-2-yl)-4-(2,5-difluorobenzamido)-N-(6-{[4-(2,4-dioxo-1,3-diazinan-1-yl)phenyl]amino}hexyl)piperidine-4-carboxamide]
Dmax: 60 to 90%
DC50: 2 to 10 nM

CCOc1cc(-c2ccc(N3CCC(NC(=O)c4cc(F)ccc4F)(C(=O)NCCCCCCNc4cccc5c(N6CCC(=O)NC6=O)nn(C)c45)CC3)nc2)c2c(C#N)cnn2c1 [Example 149, 1-(5-{3-cyano-6-ethoxypyrazolo[1,5-a]pyridin-4-yl}pyridin-2-yl)-4-(2,5-difluorobenzamido)-N-(6-{[3-(2,4-dioxo-1,3-diazinan-1-yl)-1-methyl-1H-indazol-7-yl]amino}hexyl)piperidine-4-carboxamide]
Dmax: > 90%
DC50: < 2 nM

CCOc1cc(-c2ccc(N3CCC(NC(=O)c4cc(F)ccc4F)(C(=O)NCCCCCCCCCCNc4cccc5c(N6CCC(=O)NC6=O)nn(C)c45)CC3)nc2)c2c(C#N)cnn2c1 [Example 150, 1-(5-{3-cyano-6-ethoxypyrazolo[1,5-a]pyridin-4-yl}pyridin-2-yl)-4-(2,5-difluorobenzamido)-N-(10-{[3-(2,4-dioxo-1,3-diazinan-1-yl)-1-methyl-1H-indazol-7-yl]amino}decyl)piperidine-4-carboxamide]
Dmax: > 90%
DC50: 10 to 100 nM

CCOc1cc(-c2ccc(N3CCC(NC(=O)c4cc(F)ccc4F)(C(=O)NCCCCCCCCNc4ccc5c(N6CCC(=O)NC6=O)nn(C)c5c4)CC3)nc2)c2c(C#N)cnn2c1 [Example 152, 1-(5-{3-cyano-6-ethoxypyrazolo[1,5-a]pyridin-4-yl}pyridin-2-yl)-4-(2,5-difluorobenzamido)-N-(8-{[3-(2,4-dioxo-1,3-diazinan-1-yl)-1-methyl-1H-indazol-6-yl]amino}octyl)piperidine-4-carboxamide]
Dmax: 60 to 90%
DC50: 2 to 10 nM

CCOc1cc(-c2ccc(N3CCC(NC(=O)c4cc(F)ccc4F)(C(=O)NCCCCCCCCCCNc4ccc5c(N6CCC(=O)NC6=O)nn(C)c5c4)CC3)nc2)c2c(C#N)cnn2c1 [Example 153, 1-(5-{3-cyano-6-ethoxypyrazolo[1,5-a]pyridin-4-yl}pyridin-2-yl)-4-(2,5-difluorobenzamido)-N-(10-{[3-(2,4-dioxo-1,3-diazinan-1-yl)-1-methyl-1H-indazol-6-yl]amino}decyl)piperidine-4-carboxamide]
Dmax: > 90%
DC50: 2 to 10 nM

CCOc1cc(-c2ccc(N3CCC(NC(=O)c4cc(F)ccc4F)(C(=O)NCCCCN4CCN(c5ccc6c(c5)CN(C5CCC(=O)NC5=O)C6=O)CC4)CC3)nc2)c2c(C#N)cnn2c1 (stereo not shown) [Example 154, 1-(5-{3-cyano-6-ethoxypyrazolo[1,5-a]pyridin-4-yl}pyridin-2-yl)-4-(2,5-difluorobenzamido)-N-(4-{4-[2-(2,6-dioxopiperidin-3-yl)-1-oxo-2,3-dihydro-1H-isoindol-5-yl]piperazin-1-yl}butyl)piperidine-4-carboxamide]
Dmax: 60 to 90%
DC50: 10 to 100 nM

CCOc1cc(-c2ccc(N3CCC(NC(=O)c4cc(F)ccc4F)(C(=O)NCCCCCCN4CCN(c5ccc6c(c5)CN(C5CCC(=O)NC5=O)C6=O)CC4)CC3)nc2)c2c(C#N)cnn2c1 (stereo not shown) [Example 155, 1-(5-{3-cyano-6-ethoxypyrazolo[1,5-a]pyridin-4-yl}pyridin-2-yl)-4-(2,5-difluorobenzamido)-N-(6-{4-[2-(2,6-dioxopiperidin-3-yl)-1-oxo-2,3-dihydro-1H-isoindol-5-yl]piperazin-1-yl}hexyl)piperidine-4-carboxamide]
Dmax: 60 to 90%
DC50: < 2 nM

CCOc1cc(-c2ccc(N3CCC(NC(=O)c4cc(F)ccc4F)(C(=O)NCCN4CCC(c5ccc6c(c5)CN(C5CCC(=O)NC5=O)C6=O)CC4)CC3)nc2)c2c(C#N)cnn2c1 (stereo not shown) [Example 156, 1-(5-{3-cyano-6-ethoxypyrazolo[1,5-a]pyridin-4-yl}pyridin-2-yl)-4-(2,5-difluorobenzamido)-N-(2-{4-[2-(2,6-dioxopiperidin-3-yl)-1-oxo-2,3-dihydro-1H-isoindol-5-yl]piperidin-1-yl}ethyl)piperidine-4-carboxamide]
Dmax: 60 to 90%
DC50: 2 to 10 nM

CCOc1cc(-c2ccc(N3CCC(NC(=O)c4cc(F)ccc4F)(C(=O)NCCCCCCN4CCC(c5ccc6c(c5)CN(C5CCC(=O)NC5=O)C6=O)CC4)CC3)nc2)c2c(C#N)cnn2c1 (stereo not shown) [Example 157, 1-(5-{3-cyano-6-ethoxypyrazolo[1,5-a]pyridin-4-yl}pyridin-2-yl)-4-(2,5-difluorobenzamido)-N-(6-{4-[2-(2,6-dioxopiperidin-3-yl)-1-oxo-2,3-dihydro-1H-isoindol-5-yl]piperidin-1-yl}hexyl)piperidine-4-carboxamide]
Dmax: > 90%
DC50: 2 to 10 nM

CCOc1cc(-c2ccc(N3CCC(NC(=O)c4cc(F)ccc4F)(C(=O)NCCN4CCN(c5ccc6c(c5)C(=O)N(C5CCC(=O)NC5=O)C6)CC4)CC3)nc2)c2c(C#N)cnn2c1 (stereo not shown) [Example 158, 1-(5-{3-cyano-6-ethoxypyrazolo[1,5-a]pyridin-4-yl}pyridin-2-yl)-4-(2,5-difluorobenzamido)-N-(2-{4-[2-(2,6-dioxopiperidin-3-yl)-3-oxo-2,3-dihydro-1H-isoindol-5-yl]piperazin-1-yl}ethyl)piperidine-4-carboxamide]
Dmax: 60 to 90%
DC50: < 2 nM

CCOc1cc(-c2ccc(N3CCC(NC(=O)c4cc(F)ccc4F)(C(=O)NCCCCN4CCN(c5ccc6c(c5)C(=O)N(C5CCC(=O)NC5=O)C6)CC4)CC3)nc2)c2c(C#N)cnn2c1 (stereo not shown) [Example 159, 1-(5-{3-cyano-6-ethoxypyrazolo[1,5-a]pyridin-4-yl}pyridin-2-yl)-4-(2,5-difluorobenzamido)-N-(4-{4-[2-(2,6-dioxopiperidin-3-yl)-3-oxo-2,3-dihydro-1H-isoindol-5-yl]piperazin-1-yl}butyl)piperidine-4-carboxamide]
Dmax: 60 to 90%
DC50: 2 to 10 nM

CCOc1cc(-c2ccc(N3CCC(NC(=O)c4cc(F)ccc4F)(C(=O)NCCCCCCN4CCN(c5ccc6c(c5)C(=O)N(C5CCC(=O)NC5=O)C6)CC4)CC3)nc2)c2c(C#N)cnn2c1 (stereo not shown) [Example 160, 1-(5-{3-cyano-6-ethoxypyrazolo[1,5-a]pyridin-4-yl}pyridin-2-yl)-4-(2,5-difluorobenzamido)-N-(6-{4-[2-(2,6-dioxopiperidin-3-yl)-3-oxo-2,3-dihydro-1H-isoindol-5-yl]piperazin-1-yl}hexyl)piperidine-4-carboxamide]
Dmax: > 90%
DC50: 2 to 10 nM

CCOc1cc(-c2ccc(N3CCC(NC(=O)c4cc(F)ccc4F)(C(=O)NCCN4CCC(c5ccc6c(c5)C(=O)N(C5CCC(=O)NC5=O)C6)CC4)CC3)nc2)c2c(C#N)cnn2c1 (stereo not shown) [Example 161, 1-(5-{3-cyano-6-ethoxypyrazolo[1,5-a]pyridin-4-yl}pyridin-2-yl)-4-(2,5-difluorobenzamido)-N-(2-{4-[2-(2,6-dioxopiperidin-3-yl)-3-oxo-2,3-dihydro-1H-isoindol-5-yl]piperidin-1-yl}ethyl)piperidine-4-carboxamide]
Dmax: 60 to 90%
DC50: < 2 nM

CCOc1cc(-c2ccc(N3CCC(NC(=O)c4cc(F)ccc4F)(C(=O)NCCCCN4CCC(c5ccc6c(c5)C(=O)N(C5CCC(=O)NC5=O)C6)CC4)CC3)nc2)c2c(C#N)cnn2c1 (stereo not shown) [Example 162, 1-(5-{3-cyano-6-ethoxypyrazolo[1,5-a]pyridin-4-yl}pyridin-2-yl)-4-(2,5-difluorobenzamido)-N-(4-{4-[2-(2,6-dioxopiperidin-3-yl)-3-oxo-2,3-dihydro-1H-isoindol-5-yl]piperidin-1-yl}butyl)piperidine-4-carboxamide]
Dmax: 60 to 90%
DC50: 10 to 100 nM

CCOc1cc(-c2ccc(N3CCC(NC(=O)c4cc(F)ccc4F)(C(=O)NCCCCCCN4CCC(c5ccc6c(c5)C(=O)N(C5CCC(=O)NC5=O)C6)CC4)CC3)nc2)c2c(C#N)cnn2c1 (stereo not shown) [Example 163, 1-(5-{3-cyano-6-ethoxypyrazolo[1,5-a]pyridin-4-yl}pyridin-2-yl)-4-(2,5-difluorobenzamido)-N-(6-{4-[2-(2,6-dioxopiperidin-3-yl)-3-oxo-2,3-dihydro-1H-isoindol-5-yl]piperidin-1-yl}hexyl)piperidine-4-carboxamide]
Dmax: 60 to 90%
DC50: 2 to 10 nM

CCOc1cc(-c2ccc(N3CCC(CN(C(=O)CCCCN4CCN(c5ccc6c(c5)CN(C5CCC(=O)NC5=O)C6=O)CC4)C(C)C)(NC(=O)c4cc(F)ccc4F)CC3)nc2)c2c(C#N)cnn2c1 (stereo not shown) [Example 164, N-[1-(5-{3-cyano-6-ethoxypyrazolo[1,5-a]pyridin-4-yl}pyridin-2-yl)-4-[(5-{4-[2-(2,6-dioxopiperidin-3-yl)-1-oxo-2,3-dihydro-1H-isoindol-5-yl]piperazin-1-yl}-N-(propan-2-yl)pentanamido)methyl]piperidin-4-yl]-2,5-difluorobenzamide]
Dmax: > 90%
DC50: 2 to 10 nM
